Experimental data as given in ChEMBL document CHEMBL2176887, “Chemokine receptor antagonists” (J Med Chem, 2012).

Tests used:
[1] = Oral bioavailability in dog; type: ADME, organism-based, Canis lupus familiaris; details: in vivo
[2] = Half life in rat; type: ADME, organism-based; details: in vivo
[3] = Oral bioavailability in rat; type: ADME, organism-based; details: in vivo
[4] = organism: Cavia porcellus; assay: Inhibition of CCL3-induced immune cell recruitment in guinea pig sensitization model; type: functional, organism-based
[5] = target: C-C chemokine receptor type 5 (Homo sapiens, UniProt P51681)
[6] = target: T1, C-C chemokine receptor type 1 (Homo sapiens, UniProt P32246)
T1 sequence (P32246 whole entry): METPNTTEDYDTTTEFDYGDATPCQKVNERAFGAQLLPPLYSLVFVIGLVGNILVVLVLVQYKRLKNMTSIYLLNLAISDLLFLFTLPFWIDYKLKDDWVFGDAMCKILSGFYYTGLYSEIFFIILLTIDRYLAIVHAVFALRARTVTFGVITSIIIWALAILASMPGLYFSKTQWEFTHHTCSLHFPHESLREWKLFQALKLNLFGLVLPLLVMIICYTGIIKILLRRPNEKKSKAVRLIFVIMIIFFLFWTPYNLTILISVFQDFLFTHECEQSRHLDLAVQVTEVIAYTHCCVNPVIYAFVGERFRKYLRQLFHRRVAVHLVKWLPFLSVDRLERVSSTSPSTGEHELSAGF

[7] = target: T2, Muscarinic acetylcholine receptor M2 (Homo sapiens, UniProt P08172)
T2 sequence (P08172 whole entry): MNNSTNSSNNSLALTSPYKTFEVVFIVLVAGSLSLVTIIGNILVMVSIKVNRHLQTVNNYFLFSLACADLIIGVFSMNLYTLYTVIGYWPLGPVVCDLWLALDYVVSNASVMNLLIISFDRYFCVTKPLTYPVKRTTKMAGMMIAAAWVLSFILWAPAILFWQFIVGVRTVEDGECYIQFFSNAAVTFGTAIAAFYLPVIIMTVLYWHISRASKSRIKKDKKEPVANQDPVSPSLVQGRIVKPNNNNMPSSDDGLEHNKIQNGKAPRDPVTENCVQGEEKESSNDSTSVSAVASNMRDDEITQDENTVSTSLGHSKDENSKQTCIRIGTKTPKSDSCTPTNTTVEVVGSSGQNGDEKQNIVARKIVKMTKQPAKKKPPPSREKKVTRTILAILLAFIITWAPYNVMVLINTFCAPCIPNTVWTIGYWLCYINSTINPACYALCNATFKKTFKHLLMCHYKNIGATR
Description: Binding affinity to muscarinic M2 receptor

[8] = physchem; details: octanol/water
Description: Lipophilicity, log P of the compound

[9] = Half life in human; type: ADME, organism-based; details: in vivo
[10] = Binding affinity to rat CCR1 by radioligand binding assay

Chain of C-C chemokine receptor type 5 (P51681 whole entry): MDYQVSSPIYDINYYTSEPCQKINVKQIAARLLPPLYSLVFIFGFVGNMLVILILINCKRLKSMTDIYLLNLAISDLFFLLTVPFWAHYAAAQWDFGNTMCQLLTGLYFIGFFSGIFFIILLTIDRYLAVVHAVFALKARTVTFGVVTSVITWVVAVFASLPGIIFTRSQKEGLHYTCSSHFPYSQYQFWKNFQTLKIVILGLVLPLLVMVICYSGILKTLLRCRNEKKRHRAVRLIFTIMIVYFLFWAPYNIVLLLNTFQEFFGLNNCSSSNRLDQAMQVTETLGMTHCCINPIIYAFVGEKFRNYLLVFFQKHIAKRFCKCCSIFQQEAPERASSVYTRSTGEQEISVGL

Row | SMILES | bioavailability [1] | half-life [2] | bioavailability [3] | EC50 [4] | Ki [5] | Ki [6] | Ki [7] | logP [8] | half-life [9] | Kd [10]
1 | CC1(C)CN(CC/C=C2/c3cc(C(=O)O)ccc3OCc3ncccc32)C[C@H](c2ccc(Cl)cc2)[C@H]1O | 100% | 3 h | 35% | 0.03 mg/kg | 1 nM | 2.3 nM | 1.3 nM | 5.1 |  | 
2 | C[C@@H]1CN(Cc2ccc(F)cc2)CCN1C(=O)COc1ccc(Cl)cc1NC(N)=O [BX 471 FREE BASE] |  |  |  |  |  |  |  |  | 2.3 h | 121 nM
